Data taken from ChEMBL document CHEMBL1201862, “PubChem BioAssay data set” (2004).
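Where inhibition never reached the appropriate level, the endpoint shown equals the highest concentration tested. Otherwise, values were interpolated linearly from a five-concentration, 48-hour dose response in 96-well plates. At the GI50, growth is halved.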 Activity calls are given as the source filed them. Cut-off read from the data, not from the text of the source: active = GI50 up to about 1.1 µM and inactive = higher.

Assays:
Experiment in all cases: growth of human tumour cells (NCI), 48 h
[1] = test system: A498
[2] = test system: BT-549
[3] = test system: CAKI-1
[4] = test system: CCRF-CEM
[5] = test system: HCT-15
[6] = test system: HL-60
[7] = test system: MDA-MB-435
[8] = test system: MDA-N
[9] = test system: NCI-H23
[10] = test system: OVCAR-5
[11] = test system: RXF 393
[12] = test system: SF-539
[13] = test system: SK-MEL-2
[14] = test system: SN12C
[15] = test system: SNB-19
[16] = test system: SW-620
[17] = test system: TK-10
[18] = test system: NCI-H226
[19] = test system: NCI-H522
[20] = test system: NCI-H460

SMILES	GI50 [1]	GI50 [2]	GI50 [3]	GI50 [4]	GI50 [5] [µM]	GI50 [6]	GI50 [7]	GI50 [8]	GI50 [9]	GI50 [10]	GI50 [11]	GI50 [12]	GI50 [13]	GI50 [14]	GI50 [15]	GI50 [16]	GI50 [17]	GI50 [18]	GI50 [19]	GI50 [20]
O=C(O)c1ccc(NC(NC(=O)C(C(F)(F)F)C(F)(F)F)(C(F)(F)F)C(F)(F)F)cc1	> 100 µM (inactive)	> 100 µM (inactive)	> 100 µM (inactive)	> 100 µM (inactive)	> 100	> 100 µM (inactive)	> 100 µM (inactive)	> 100 µM (inactive)	> 100 µM (inactive)	> 100 µM (inactive)	> 100 µM (inactive)	> 100 µM (inactive)	> 100 µM (inactive)	> 100 µM (inactive)	> 100 µM (inactive)	> 100 µM (inactive)	> 100 µM (inactive)	–	–	–
COC(=O)C(O)P(=O)(OC)OC (stereo not given)	> 100 µM (inactive)	> 100 µM (inactive)	> 100 µM (inactive)	–	> 100	> 100 µM (inactive)	> 100 µM (inactive)	> 100 µM (inactive)	> 100 µM (inactive)	> 100 µM (inactive)	> 100 µM (inactive)	–	> 100 µM (inactive)	> 100 µM (inactive)	> 100 µM (inactive)	> 100 µM (inactive)	–	> 100 µM (inactive)	> 100 µM (inactive)	–
CCCCn1c(C)c2c(c1C)C(=O)N(CCN1CCN(c3ccccc3Cl)CC1)C2=O	39 µM (inactive)	17.3 µM (inactive)	69.3 µM (inactive)	29.3 µM (inactive)	35.6	22.1 µM (inactive)	32.4 µM (inactive)	34.6 µM (inactive)	27.2 µM (inactive)	61.8 µM (inactive)	–	17.9 µM (inactive)	20 µM (inactive)	26.7 µM (inactive)	92.3 µM (inactive)	37.5 µM (inactive)	43.5 µM (inactive)	36.9 µM (inactive)	25.5 µM (inactive)	35.5 µM (inactive)
CN(C)/C=N/c1c2c(nc3ccccc13)CCCC2	49.9 µM (inactive)	> 100 µM (inactive)	> 100 µM (inactive)	44 µM (inactive)	> 100	31.1 µM (inactive)	> 100 µM (inactive)	61.7 µM (inactive)	50.7 µM (inactive)	> 100 µM (inactive)	> 100 µM (inactive)	96.4 µM (inactive)	> 100 µM (inactive)	> 100 µM (inactive)	> 100 µM (inactive)	–	> 100 µM (inactive)	36 µM (inactive)	> 100 µM (inactive)	–
CCOP(=O)(OCC)C(Nc1cccc(F)c1)c1ccccc1 (stereo not given)	> 100 µM (inactive)	> 100 µM (inactive)	> 100 µM (inactive)	47.1 µM (inactive)	44.4	18.1 µM (inactive)	78.9 µM (inactive)	> 100 µM (inactive)	> 100 µM (inactive)	–	25.2 µM (inactive)	> 100 µM (inactive)	47.9 µM (inactive)	75.9 µM (inactive)	> 100 µM (inactive)	> 10 µM (inactive)	> 100 µM (inactive)	93.5 µM (inactive)	36.1 µM (inactive)	43.9 µM (inactive)
CC(=O)C(=[N+]=[N-])C(=O)N1CCOC1=O	> 10 µM (inactive)	> 10 µM (inactive)	> 10 µM (inactive)	> 10 µM (inactive)	> 10	> 10 µM (inactive)	> 10 µM (inactive)	> 10 µM (inactive)	> 10 µM (inactive)	> 10 µM (inactive)	> 10 µM (inactive)	> 10 µM (inactive)	> 10 µM (inactive)	> 10 µM (inactive)	> 10 µM (inactive)	> 10 µM (inactive)	> 10 µM (inactive)	> 10 µM (inactive)	–	> 10 µM (inactive)
CC(C)(CO)CNc1cc(=O)[nH]c(N)n1	> 100 µM (inactive)	> 100 µM (inactive)	> 100 µM (inactive)	> 100 µM (inactive)	> 100	> 100 µM (inactive)	> 100 µM (inactive)	> 100 µM (inactive)	> 100 µM (inactive)	> 100 µM (inactive)	> 100 µM (inactive)	–	> 100 µM (inactive)	> 100 µM (inactive)	> 100 µM (inactive)	> 100 µM (inactive)	–	> 100 µM (inactive)	> 100 µM (inactive)	> 100 µM (inactive)
OC(Cc1cccnc1)(c1ccccc1)c1ccccc1	> 100 µM (inactive)	73.6 µM (inactive)	> 100 µM (inactive)	> 100 µM (inactive)	> 100	55.5 µM (inactive)	47 µM (inactive)	47.2 µM (inactive)	70.8 µM (inactive)	> 100 µM (inactive)	> 100 µM (inactive)	–	> 100 µM (inactive)	> 100 µM (inactive)	> 100 µM (inactive)	> 100 µM (inactive)	> 100 µM (inactive)	> 100 µM (inactive)	47 µM (inactive)	> 100 µM (inactive)
